# Assay results: US6969763B1, “Molecular interaction sites of interleukin-2 RNA and methods of modulating the same” (priority 1999, dated 2005)
# pIC50, pKd: −log10 of the molar value. Like-named read-outs stand apart in the source and are kept apart here.
# Experiments:
# [1] = system: TAR RNA / tat peptide; assay: disruption of TAR RNA interaction with tat peptide; type: binding, HIV
# [2] = system: HIV TAR RNA structure in the 5'-UTR of luciferase mRNA; assay: wheat germ lysate translation of luciferase mRNA containing the TAR RNA structure in the 5'-UTR; type: biochemical
# Excerpt: It is believed that stabilization of mRNA structures near the 5′-cap also could be effected by specific “small” molecules, and that such binding would reduce the translational efficiency of the mRNA. To test this hypothesis, a plasmid was constructed containing the luciferase message behind a 5′-UTR containing a 27-mer RNA construct of the HIV TAR stem-loop bulge whose structure had been determined by NMR. The resulting mRNA could be expressed and capped in a wheat germ lysate translation system supplemented with T7 polymerase following addition of m^7G to the lysate (see, FIG. 38A). Insertion of a 9-base leader before the TAR structure (HIVluc+9) enhanced the translational efficiency, presumably by allowing the pre-initiation complex to form. The helicase activity associated with the pre-initiation complex can transiently melt out the TAR RNA structure, and the message is translated (see, FIG. 38A).
# [3] = system: luciferase mRNA; assay: wheat germ lysate translation of control luciferase mRNA (luc+9); type: biochemical; details: in words
# Excerpt: It is believed that stabilization of mRNA structures near the 5′-cap also could be effected by specific “small” molecules, and that such binding would reduce the translational efficiency of the mRNA. To test this hypothesis, a plasmid was constructed containing the luciferase message behind a 5′-UTR containing a 27-mer RNA construct of the HIV TAR stem-loop bulge whose structure had been determined by NMR.
# [4] = system: TAR; details: in words, assay not described
# [5] = system: E. coli; assay: high throughput screening assay for antibacterial activity (MIC); type: cell-based; details: Escherichia coli, read-out: minimum inhibitory concentrations (MIC's)
# Excerpt: This activity was verified by manual solution synthesis of analytically pure material as described in Example 6 above, which had identical activity.
# [6] = biological target: 16S rRNA A-site 27-mer RNA model; assay: ESI-FTICR mass spectrometry (MASS) binding to 16S A-site 27-mer RNA model; set-up: species or system prokaryotic; details: for pKd: 16S A site 27mer, read-out: MS-measured dissociation constant (KD); for complex formation with 16S A site RNA: aminoglycosides 500 nM each, in words
# Description: (§1) The ESI-FTICR mass spectrum depicted in FIG. 70 was acquired from a […] mixture of untagged 16S and tagged 18S in the presence of an equimolar mixture of five aminoglycosides. It is to be understood that other biomolecules may be used in place of the aminoglycosides. The aminoglycosides have been selected from two classes of 2-deoxystreptamines: 4,5-disubstituted (paromomycin, and lividomycin), and 4,6-disubstituted (tobramycin, sisomicin, and bekanamycin), present at 500 nM each. Complexes corresponding to 1:1 binding of individual aminoglycosides were observed between 16S and all members of the aminoglycoside mixture, with the apparent affinities estimated from the abundances of the respective complexes differing substantially. Signal intensities from the complexes with paromomycin (m/z 1925.572) and lividomycin (m/z 1954.790) are consistent with MS-measured dissociation constants of 110 nM and 28 nM, respectively. The intensities of 16S complexes with tobramycin (m/z 1895.960), bekanamycin (m/z 1899.171), and sisomicin (m/z 1891.972) were reduced, consistent with solution dissociation constants of […]. Wang, et al., Biochemistry, 1997, 36, 768-779. […] The spectrum is calibrated using multiple isotope peaks of the (M−5H^+)^5- and (M−4H^+)^4- charge states of the free RNA as internal mass standards which brackets the m/z range in which complexes are observed. The average mass measurement error obtained for the complexes in FIG. 70 is 2.1 ppm when m/z differences are measured between the most abundant (4 ^13C) isotope peak of 16S and each complex. This post calibration scheme is easily automated which enables rapid, high precision mass measurements of affinity selected ligands against multiple targets in a high throughput mode.
# ESI-MS measurements of a solution containing a fixed concentration of RNA at different concentrations of ligand were obtained. By measuring the ratio of bound:unbound RNA at varying ligand concentrations, the Kd was determined by 1/slope of the “titration curve”. The MS derived value of 110 nM is in good agreement with previously reported literature value of 200 nM.
# Paromomycin, lividomycin (MW=761.354 Da), sisomicin (MW=447.269 Da), tobramycin (MW=467.2591 Da), and bekanamycin (MW=483.254 Da) were obtained from Sigma (St. Louis, Mo.) and ICN (Costa Mesa, Calif.) and were dissolved to generate 10 mM stock solutions. 2′ methoxy analogs of RNA constructs representing the prokaryotic (16S).rRNA and eukaryotic (18S) rRNA A-site (FIG. 68) were synthesized in house and precipitated twice from 1 M ammonium acetate following deprotection with ammonia (pH 8.5). The mass-tagged constructs contained an 18-atom mass tag (C12H25O9) attached to the 5′-terminus of the RNA oligomer through a phosphodiester linkage.
# All mass spectrometry experiments were performed using an Apex 11 70e electrospray ionization Fourier transform ion cyclotron resonance mass spectrometer (Bruker Daltonics, Billerica) employing an actively shielded 7 tesla superconducting magnet. RNA solutions were prepared in 50 mM NH4OAc (pH 7), mixed 1: v:v with isopropanol to aid desolvation, and infused at a rate of […] using a syringe pump. Ions were formed in a modified electrospray source (Analytica, Branford) employing an off axis, grounded electrospray probe positioned ca. 1.5 cm from the metalized terminus of the glass desolvation capillary biased at 5000 V. A counter-current flow of dry oxygen gas heated to 225° C. was employed to assist in the desolvation process. Ions were accumulated in an external ion reservoir comprised of an RF-only hexapole, a skimmer cone, and an auxiliary electrode for 1000 ms prior to transfer into the trapped ion cell for mass analysis. Each spectrum was the result of the coaddition of 16 transients comprised of 256 datapoints acquired over a 90,909 kHz bandwidth resulting in a 700 ms detection interval. […]
# [7] = system: 18S rRNA A-site 27-mer RNA model; assay: ESI-FTICR mass spectrometry binding to mass-tagged 18S A-site 27-mer RNA model; set-up: species or system eukaryotic; details: aminoglycosides 500 nM each, in words
# Description: as §1, with “The” for “The spectrum is calibrated using multiple isotope peaks of the (M−5H^+)^5- and (M−4H^+)^4- charge states of the free RNA as internal mass standards which brackets the m/z range in which complexes are observed. The”, “This post calibration scheme is easily automated which enables rapid, high precision mass measurements of affinity selected ligands against multiple targets in a high throughput mode.” left out
# [8] = biological target: 27-mer model RNA sequence of the 16S A-site; assay: MASS assay with the 27-mer model RNA sequence of the 16S A-site (Table 6); type: binding; details: 27-mer model RNA of the 16S A-site
# Description: (§2) The compounds are screened for binding affinity using MASS or conventional high-throughput functional screens. […] The MASS assay was performed with the 27-mer model RNA sequence of the 16S A-site whose NMR structure has been determined. The transcription/translation assay was based on expression of a luciferase plasmid.
# (§3) Paromomycin is an aminoglycoside antibiotic known to bind to the A-site RNA structure. The NMR structure was determined with paromomycin bound at the A-site.
# [9] = system: translation of a luciferase plasmid; assay: transcription/translation assay based on expression of a luciferase plasmid; type: biochemical; details: inhibition of translation of a luciferase plasmid
# Description: as §2, §3
# [10] = biological target: decoding region of the prokaryotic 16S rRNA (the A-site); details: 16S A-site, read-out: solution dissociation constant (literature), cited from earlier work
smiles,measurement,setting,value
CNc1ccc(NCCO)c2c1C(=O)c1ccccc1C2=O [ACD 00001199],concentration disrupting the TAR RNA interaction with tat peptide,[1],1 µM
same,inhibition of translation of luciferase mRNA containing TAR RNA structure,[2]; in words,dose-dependent inhibition of translation
same,pIC50,"[2]; luciferase mRNA containing the TAR RNA structure in the 5'-UTR, read-out: concentration reducing translation by 50%",4.30
same,inhibition of translation of the luciferase mRNA (control),[3],some inhibition of translation at very high concentrations
same,"IC5, values",[4],low
"O=C(NO)[C@@H](Cc1ccc2ccccc2c1)NS(=O)(=O)c1ccc2ccccc2c1 [Compound 5-n-ii, (2R)-3-(2-naphthyl)-2-((2-naphthylsulfonyl)amino)propanehydroxamic acid]",MIC,[5],0.7 to 1.5 µM
"O=C(NO)[C@@H](Cc1ccc2ccccc2c1)NS(=O)(=O)c1ccc(Br)cc1 [Compound 5n-vi, (2R)-2-(((4-bromophenyl)sulfonyl)amino)-3-(2-naphthyl)propanehydroxamic acid]",MIC,[5],3 to 6 µM
NC[C@@H]1O[C@H](O[C@H]2[C@@H](O)[C@H](O[C@@H]3[C@@H](O)[C@H](N)C[C@H](N)[C@H]3O[C@H]3O[C@H](CO)[C@@H](O)[C@H](O)[C@H]3N)O[C@@H]2CO)[C@H](N)[C@@H](O)[C@@H]1O [Paromomycin],pKd,[6],6.96
same,complex formation with 16S A site RNA,[6],High affinity complexes
same,complex formation with 18S A site RNA,[7],complete absence of complexes
same,pKd,[8],6.30
same,Activity^1,[9],0.3 µM
same,pKd,[10]; listed as paromomycin,6.70
same,pKd,[10],~6.70
NC[C@H]1O[C@H](O[C@H]2[C@H](O)[C@@H](O[C@H]3O[C@H](CO)[C@@H](O)[C@H](N)[C@H]3O)[C@H](N)C[C@@H]2N)[C@H](N)[C@@H](O)[C@@H]1O [bekanamycin],complex formation with 16S A site RNA,[6],Weaker complexes
NC[C@@H]1O[C@H](O[C@H]2[C@@H](O)[C@H](O[C@@H]3[C@@H](O)[C@H](N)C[C@H](N)[C@H]3O[C@H]3O[C@H](CO)[C@@H](O)C[C@H]3N)O[C@@H]2CO)[C@H](N)[C@@H](O)[C@@H]1O[C@H]1O[C@H](CO)[C@@H](O)[C@H](O)[C@@H]1O [lividomycin],enhancement of binding affinity for 16S relative to paromomycin,[6],~4 fold
same,pKd,[6],7.55
same,complex formation with 16S A site RNA,[6],High affinity complexes
same,complex formation with 18S A site RNA,[7],complete absence of complexes
CN[C@@H]1[C@@H](O)[C@@H](O[C@@H]2[C@@H](O)[C@H](O[C@H]3OC(CN)=CC[C@H]3N)[C@@H](N)C[C@H]2N)OC[C@]1(C)O [sisomicin],complex formation with 16S A site RNA,[6],Weaker complexes
NC[C@H]1O[C@H](O[C@H]2[C@H](O)[C@@H](O[C@H]3O[C@H](CO)[C@@H](O)[C@H](N)[C@H]3O)[C@H](N)C[C@@H]2N)[C@H](N)C[C@@H]1O [tobramycin],complex formation with 16S A site RNA,[6],Weaker complexes
